Test results published in patent US12589143B2, “Human anti-PD-L1 peptide vaccines and methods of their use” (priority 2019, dated 2026).
Where no end group is shown, it is not given here.

System: CT26/HER-2 carcinoma cell line
Assay: CT26/HER-2 tumor challenge in immunized Balb/c mice
Assay type: in vivo
Settings: for tumor growth inhibition: CT26/HER-2, day 16
Source text: (PMID: 29337305). […] Balb/c mice 6-8 weeks old, were immunized with MVF-peptide immunogens emulsified in ISA 720 with nor-MDP three times and three weeks apart. Mice were immunized with MVF-PD-L1 vaccine constructs [PD-L1(36-53), PD-L1(50-67), PD-L1(95-112), PD-L1(130-147)] prior to tumor challenge. Blood was collected weekly and sera tested for antibody titers by ELISA. Two weeks after the third immunization (3Y), the mice were engrafted with CT26 WT tumor cells 10^5 per mouse Control mice were treated twice weekly with PBS as negative control and twice weekly with anti-mPD-L1 mAb (10F.9G2) as positive control starting 2 days after tumor challenge. Tumor growths were observed twice weekly and measured by calipers.
Vaccines were dissolved in water and emulsified in Montanide ISA 720 (1:1) and 50 μg nor-MDP (N-acetylglucosamine-3yl-acetyl-1-alanyl-d-isoglutamine). Female Balb/c mice (Charles River Laboratories) at the age of 5 to 6 week were immunized three times at 3-week intervals with 100 μg of each peptide vaccine, and 2 weeks after the third immunization, the mice were challenged s.c. with CT-26-HER2 neu tumor cells (100,000 per mouse).
Mice treated twice a week with anti-mouse PD-L1 MAb 10F.9G2 (Bio X Cell, West Lebanon, NH) 200 ug/dose was used as a positive control or purified mouse IgG from mouse sera (Sigma-Aldrich, St. Louis, Mo) as a negative control. Tumor growth was monitored for up to 21 days after challenge. During immunization, blood was drawn biweekly and used in ELISA to monitor Ab titers. The mice were euthanized at the end of treatment and tumors extracted and weighed samples of the tumors were saved for further study and for histological examination.
Two weeks after the third immunization (3Y), the mice were inoculated subcutaneously (s.c) with CT26 carcinoma cells (1×10^5 cells per mouse) and tumor formation was monitored on a daily basis afterwards. Mice treated with PBS served as negative control, and twice weekly treated mice with 200 μg/dose injections of anti-mouse PD-L1 monoclonal antibody (mAb clone 10F.9G2) served as positive control. Tumor growth was monitored daily and measured by caliper. […] PD-L1 B-cell epitope vaccines treatment had similar and significant reduction in tumor growth at day 16 post challenge as compared to negative control treatment with PBS (FIG. 19). […] Tumor sizes at various times are also shown in FIG. 20 and one-way analysis of variance (one-way ANOVA) followed by the Tukey's multiple comparisons test were used to compare data in multiple groups or data between groups.
We also analyzed the different isotypes of antibodies being generated by vaccination.
6-8 weeks old BALB/c mice (Charles River, Wilmington, MA) were used as standard animal models. Mouse CT26 colon carcinoma cell line was purchased from American Type Culture Collection Cells and were regularly cultured in RPMI1640 medium containing 10% FBS. CT26/HER2 cells were kindly provided by M. Penichet. Vaccines were dissolved in sterile water and emulsified in Montanide ISA 720 (1:1). Female Balb/c mice (Charles River Laboratories) at the age of 6-8 weeks were immunized three times at 3-week intervals with 100 μg of each peptide vaccine, and 2 weeks after the third immunization, the mice were challenged with CT26 and/or CT26/HER-2 tumor cells, which were implanted subcutaneously (s.c) on the right flank (1×10^5 per mouse). 200 μg of rat α-mouse PD-L1 mAb 10F.9G2 (Bio X Cell, West Lebanon, NH) were administered intraperitoneally (i.p.), twice weekly following tumor inoculation in the control group. Mice were monitored and scored for the formation of palpable tumors on a daily basis and sacrificed if tumors became necrotic or exceeded the predetermined size of 2,000 mm^3. Tumor volumes were measured in cubic millimeters with calipers and calculated with the following formula: A×B^2×0.5, where A is the largest diameter, and B is the widest point perpendicular to length. […]

With “KLLSLIKGVIVHRLEGVEGPSLVTSEHELTCQAEGYPKAE (KLLSLIKGVIVHRLEGVEGPSLVTSEHELTCQAEGYPKAE-NH2) [PD-L1(130)]” as the sequence, how does the levels of lesions (CT26/HER-2) read?
Its levels of lesions is “lowest levels of lesions”.

What about the “percentage of tumor growth inhibition compared to negative control” value (CT26/HER-2) of the same sequence?
The value was “Significant higher percentage of tumor growth inhibition”.

And the “tumor inhibition versus PBS” value (CT26/HER-2, Balb/c)?
The value was “superior tumor growth inhibition”.

What about the survival rate (CT26/HER-2, Kaplan-Meier method) of the same sequence?
Its survival rate is “highest survival rate”.

What about the tumor growth inhibition of the same sequence?
The tumor growth inhibition was “strongest tumor growth inhibition”.

And the “50% mice survival time / survival rate” value (CT26 HER2, compared to the other PD-L1 epitopes)?
Its value is “better survival rate”.

For “KLLSLIKGVIVHRLEGVEGPSLLIVYWEMEDKNIIQFVHG (KLLSLIKGVIVHRLEGVEGPSLLIVYWEMEDKNIIQFVHG-NH2) [PD-L1(36)]”, which tumor growth inhibition is on record?
Its tumor growth inhibition is “strongest tumor growth inhibition”.

Which tumor growth inhibition does the source give for “KLLSLIKGVIVHRLEGVEGPSLFVHGEEDLKVQHSSYRQR (KLLSLIKGVIVHRLEGVEGPSLFVHGEEDLKVQHSSYRQR-NH2) [PD-L1(50)]” here?
Its tumor growth inhibition is “strongest tumor growth inhibition”.

For “KLLSLIKGVIVHRLEGVEGPSLYRCMISYGGADYKRITVK (KLLSLIKGVIVHRLEGVEGPSLYRCMISYGGADYKRITVK-NH2) [PD-L1(95)]”, which tumor growth inhibition is on record?
The tumor growth inhibition was “strongest tumor growth inhibition”.
